In patent US6673625B2, “Saccharide sensing molecules having enhanced fluorescent properties” (The Regents of the University of California, priority 1999, dated 2004):

How the values were obtained:
[1] = Fluorescence pH switching; details: for change in fluorescence: pH changed from 11 to 2
Method: Samples for fluorescence were prepared as 1.00 mM stock solutions in MeOH. A 30.0 μL aliquot of solution was then added to 3.000 mL of the appropriate solvent mixture (a combination of methanol and phosphate buffered saline—PBS) giving a final concentration of 10.0 μM for each complex. […] Glucose additions were performed by the addition of a concentrated solution of glucose in PBS to a stirred solution of fluorophore in a cuvette.

[2] = Cyclic voltammetry (glassy carbon, Ag/AgCl reference, 0.1 M NBu4ClO4 in acetonitrile); type: physicochemical; details: for first oxidation potential (amine) / first reduction potential: vs. Ag/AgCl; for Amine Oxidation Potential E° (D^+/D) / Fluorophore Reduction Potential E° (A/A^−): Ag/AgCl reference
Method: Samples for FT IR spectroscopy were prepared as solutions in CHCl3, and only the C═O stretches are reported. Unless otherwise stated, all NMR spectra were recorded at 500 MHz for ^1H and 125 MHz for ^13C at 20-25° C. using CDCl3 as the solvent. Unless stated otherwise, mass spectra were obtained using electrospray ionization (50 V) with a 50/50 methanol/water solvent mixture with ^1% acetic acid added. Cyclic voltammetry was conducted using a glassy carbon working electrode, platinum counter electrode, and Ag/AgCl reference electrode and carried out in a 0.1 M solution of NBu4ClO4 in acetonitrile.
(§1) Summarized Syntheses. As the syntheses are described as a series of analogous compounds with general procedures are given below. Cyclic voltammetry was conducted using a glassy carbon working electrode, platinum counter electrode, and Ag/AgCl reference electrode and carried out in a 0.1 M solution of NBu4ClO4 in acetonitrile. Samples for fluorescence were prepared as 1.00 mM stock solutions in MeOH. A 30.0 μL aliquot of solution was then added to 3.000 mL of the appropriate solvent mixture (a combination of methanol and phosphate buffered saline—PBS). Relative quantum yields were determined by the relative output of equimolar solutions of two compounds using 3ay as a reference. Glucose additions were performed by the addition of a concentrated solution of glucose in PBS to a stirred solution of the fluorescent molecule in methanol/PBS.
(§2) General. All reactions were performed under an atmosphere of N2, followed by work-up in air. Protected boronate esters were stored under vacuum to prevent slow hydrolysis from atmospheric moisture. Unless stated otherwise, all chemicals were purchased from commercial suppliers. Anhydrous solvents from Aldrich were used for all reactions. Starting compounds known in the art such as N-n-butyl-4-chloronaphthalene-1,8-dicarboximide(1ax), 2,2-dimethylpropane-1,3-diyl[o-(bromomethyl) phenyl]boronate, were prepared by literature methods (see e.g. Daffy et al. Chem-Eur J 1998, 4, 1810-1815; de Silva et al., Chem Rev 1997, 97, 1515-1566). Samples for FT IR spectroscopy were prepared as solutions in CHCl3, and only the C═O stretches are reported here. All mass spectra were obtained using electrospray ionization (ESI/MS) with an ionization potential of 50V and a solvent system consisting of 1% acetic acid in 50/50 methanol/water. Cyclic voltammetry was conducted using a glassy carbon working electrode, platinum counter electrode, and Ag/AgCl reference electrode and carried out in a 0.1 M solution of NBu4ClO4 in acetonitrile. Samples for fluorescence measurements were prepared as 1.00 mM stock solutions in MeOH. A 30.0 μL aliquot of solution was then added to 3.000 mL of the appropriate solvent mixture (a combination of methanol and phosphate buffered saline—PBS) giving a final concentration of 10.0 μM for each complex. Changes in pH were carried out by the addition of small volumes of concentrated hydrochloric acid, acetic acid, or sodium hydroxide. Glucose additions were performed by the addition of a concentrated solution of glucose in PBS to a stirred solution of fluorophore in a cuvette. Relative quantum yield measurements were carried out by measuring the relative intensities of equimolar solutions (10.0 μM) of two fluorophores. Compound 3ay was used as the reference.

[3] = Rehm-Weller estimate of free energy of photoinduced electron transfer (PET); type: physicochemical; details: for ΔGPET: Rehm-Weller estimate; for λ00: average of excitation and emission maxima
Text: The search for new fluorescent glucose transducers based on photoelectron transfer (PET) requires, among other things, an understanding of the electrochemistry of any potential donor-acceptor pair. The free energy of PET (ΔGel) can be calculated using the Rehm-Weller equation shown below:
ΔGel(kcal mol^−1)=23.06[E^0(D^+/D)−E^0(A/A^−)]−wp−wr−ΔG00 where E^0(D^+/D) is the oxidation potential of the donor, E^0(A/A^−) is the reduction potential of the acceptor, and ΔG00 is the free energy corresponding to the equilibrium energy E00 (see e.g. Kavarnos, G. J. In Fundamentals of photoinduced electron transfer, VCH Publishers: New York, N.Y., 1993; p Chapter 1 and Rehm and Weller, Ist. J. Chem. 1970, 8, 259). The quantities wp and wr are Coulombic terms for the products and reactants, and ate found to be small in polar solvents. To simplify predictions, we assume wp and wr to be zero, and estimate E00 as the energy corresponding to [λmax(ex)+λmax(em)]/2 for each fluorophore.
ΔGPET=23.06[E^0(Z^oxidation)−E^0(F^reduction)]−ΔE00],
The electrochemical potentials can be measured using the individual molecular groups before assembling the complete molecule.
Electrochemistry. The search for new fluorescent glucose transducers based on PET requires, among other things, an understanding of the electrochemistry of any potential donor-acceptor pair. The free energy of PET (ΔGel) can be calculated using the Rehm-Weller equation shown in eq 1, where E^0(D^+/D) is the oxidation potential of the […]
ΔGe(kcal mol^−1)=23.06[E^0(D^+/D)−E^0(A/A^−)]−wp−wr−ΔG00 (1) donor, E^0(A/A^−) is the reduction potential of the acceptor, and ΔG00 is the free energy corresponding to the equilibrium energy E00. The quantities wp and wr are Coulombic terms for the products and reactants, and are found to be small in polar solvents. In our case, wr=0 since the reactants are neutral. To simplify predictions, we assume wp to be zero and estimate E00 as the energy corresponding to [λmax(ex)+λmax(em)]/2 for each fluorophore. […]
it is possible to estimate the free energy of photoinduced electron transfer (PET) in these systems (see e.g. Kavamos, G. J. Fundamentals of Photoinduced Electron Transfer, VCH: New York, 1993; pp 37-40). E0(D^+/D) and E^0(A/A^−) correspond to the […] of the electron donor (i.e. amine) and electron acceptor (i.e. fluorophore), respectively. The quantity ΔG00, is the equilibrium energy, which we estimate as the energy corresponding to the equilibrium wavelength λ00. As an estimate of λ00, we use the average of the excitation and emission maxima for each fluorophore. Smaller solvent-dependent work terms for the Coulombic interaction between the reactants and products are left out for simplicity. Since the mechanism of fluorescence switching in these systems depends on PET, this gives us a rough estimate of which fluorophores should give the best response to glucose.

[4] = vs. SCE, literature data for parent complexes; cited from earlier work
[5] = Glucose testing of naphthalimide boronates by fluorescence; details: PBS buffer (pH 7.4)
Text: The fluorescence spectra of compounds 3 have been obtained as a function of increasing glucose concentration. […] These values range from 9% to 16% over the four compounds, with the two lower values coming from the two compounds having secondary amino groups. These low values of fractional switching are more than balanced out by the high quantum yields for compounds 3az and 3cz. As a measure of the total signal increase for each system, the product of quantum yield and fractional fluorescence increase are given in Table 1, showing that 3cz is the most promising sensor candidate of the group, as expected.
as §1
as §2, with “A 30.0 μL aliquot of solution was then added to 3.000 mL of the appropriate solvent mixture (a combination of methanol and phosphate buffered saline—PBS) giving a final concentration of 10.0 μM for each complex. Changes in pH were carried out by the addition of small volumes of concentrated hydrochloric acid, acetic acid, or sodium hydroxide. Glucose additions were performed by the addition of a concentrated solution of glucose in PBS to a stirred solution of fluorophore in a cuvette. Relative quantum yield measurements were carried out by measuring the relative intensities of equimolar solutions (10.0 μM) of two fluorophores. Compound 3ay was used as the reference.” left out

[6] = Fluorescence spectra and relative quantum yields of naphthalimide boronates; type: physicochemical; details: for Emission λmax / Excitation λmax / Relative Quantum Yield: PBS buffer (pH 7.4); for Relative Quantum Yield: equimolar 10.0 μM solutions, 3ay as reference
Text: Sample excitation and emission spectra are shown in FIG. 27 for 3ay and 3cy, along with fluorescence maxima in Table 1. Literature references indicate a higher quantum yield for secondary-amine naphthalimide derivatives than for tertiary amines in otherwise similar compounds. The pragmatic value of this gain was examined, weighing synthetic difficulty against measurable relative quantum yields.
as §1, §2

Compound | change in fluorescence [1] | first oxidation potential (amine) [2] | first reduction potential [2] | signal increase ([1]; drop from pH 7 to pH 2) | expected ΔGel ([3]; from literature reduction potentials of parent complexes) | reduction potential [4] | Amine Oxidation Potential E° (D^+/D) [2] | Fluorophore Reduction Potential E° (A/A^−) [2] | ΔGPET [3] | λ00 [3] | Fluorescence Intensity Increase with added glucose (0 to 600 mg dL^−1) [5] | change in quantum yield or wavelength maximum on removal of the THP protecting group [6] | Emission λmax [6] | Excitation λmax [6] | Relative Quantum Yield [6]
CCN(CC)Cc1ccnc(-c2cc(C)ccn2)c1.O=S(=O)([O-])C(F)(F)F.[C-]#[O+].[C-]#[O+].[C-]#[O+].[Re+].c1ccncc1 [(bpyCH2NEt2)Re(CO)3(py)](OTf), reference compound] | 61% | 1.35 V | −1.20 V |  |  |  |  |  |  |  |  |  |  |  | 
Cc1ccnc(-c2cc(CN(C)Cc3ccccc3)ccn2)c1.O=S(=O)([O-])C(F)(F)F.[C-]#[O+].[C-]#[O+].[C-]#[O+].[Re+].c1ccncc1 [[(bpyN)Re(CO)3(py)](OTf)] | 930% | 1.34 V | −1.20 V | 21% |  |  |  |  |  |  |  |  |  |  | 
[Cl][Ru][Cl].c1ccc(-c2ccccn2)nc1.c1ccc(-c2ccccn2)nc1.c1ccc(-c2ccccn2)nc1 [[Ru(bpy)3]Cl2, reference compound] |  |  |  |  | 12.5 kcal/mol | −1.31 V |  |  |  |  |  |  |  |  | 
N-(5′-Tetrahydropyranoxypentyl)-4-(N′-aminoethylene-N″-ArBmethylamino)naphthalene-1,8-dicarboximide [Compound 3cz] |  |  |  |  |  |  | 1.00 V | −1.53 V | -1.2 kcal/mol | 480 nm | 10% | no significant change | 525 nm | 435 nm | 51.2
N-(5′-Tetrahydropyranoxypentyl)-4-(N′-methylaminoethylene-N″-ArBmethylamino)naphthalene-1,8-dicarboximide [Compound 3cy] |  |  |  |  |  |  | 0.93 V | −1.47 V | -5.5 kcal/mol | 470 nm | 13% |  | 525 nm | 415 nm | 1.32
N-n-Butyl-4-(N′-aminoethylene-N″-ArBmethylamino)naphthalene-1,8-dicarboximide [Compound 3az] |  |  |  |  |  |  | 1.05 V | −1.48 V | -0.62 kcal/mol | 485 nm | 9% |  | 535 nm | 435 nm | 44.2
N-n-Butyl-4-(N′-methylaminoethylene-N″-ArBmethylamino)naphthalene-1,8-dicarboximide [Compound 3ay] |  |  |  |  |  |  | 0.91 V | −1.48 V | -4.8 kcal/mol | 478 nm | 16% |  | 535 nm | 420 nm | 1
